Data on one molecule can be found in paper PMC6093650, “Antidepressive and anxiolytic effects of ostruthin, a TREK-1 channel activator” (PLoS ONE, 2018).

One experiment deals with T1, TREK-1 channel (Homo sapiens, UniProt O95069).
T1 construct: expressed in transfected cells
T1 sequence (O95069 1-426): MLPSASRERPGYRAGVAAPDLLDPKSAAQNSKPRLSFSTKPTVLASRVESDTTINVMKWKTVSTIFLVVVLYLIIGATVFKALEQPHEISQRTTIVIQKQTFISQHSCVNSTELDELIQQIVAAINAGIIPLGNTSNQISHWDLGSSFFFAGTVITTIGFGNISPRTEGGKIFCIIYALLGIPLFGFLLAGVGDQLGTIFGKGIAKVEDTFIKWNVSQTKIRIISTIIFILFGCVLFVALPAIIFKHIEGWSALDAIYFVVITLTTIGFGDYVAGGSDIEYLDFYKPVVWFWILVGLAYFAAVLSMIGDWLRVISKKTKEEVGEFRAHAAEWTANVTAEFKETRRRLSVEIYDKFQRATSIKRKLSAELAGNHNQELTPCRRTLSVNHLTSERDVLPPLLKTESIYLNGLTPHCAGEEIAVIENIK
In words: whole-cell patch-clamp of TREK-1 currents in TR-1 cells (293T stably expressing TREK-1). It counts as cell-based. To be noted: TR-1 (293T) cells, 25°C, applied 5 min after whole-cell access, n = 5; read-out: EC50 of activation of whole-cell TREK-1 currents. The source says:
(§1) For recordings of K^+ channel currents, we prepared stable cell lines for TREK-1, TWIK-related acid-sensitive K^+ channel (TASK-1), strongly inwardly rectifying K^+ channel (Kir2.1), and human ether-a-go-go-related gene (HERG-1) channels and transiently expressed other channels in 293T cells using a calcium-phosphate transfection method. For the establishment of the stable lines, we used lentiviral vectors, and the preparation methods for the lentiviral vectors were described in our previous report. TR-1 cells, which stably expressed TREK-1 channel and were grown on a small cover glass (3 × 18 mm), were placed in a recording chamber with an internal volume of 200 μl. Whole-cell currents were recorded in Tyrode solution using an Axopatch 200B amplifier (Axon Instruments, Foster City, CA) at 25°C. […] Perfusion (100 μl/min) was continued to maintain the water level throughout recordings. pH and osmotic pressure of solutions were measured with a pH meter (Horiba, Kyoto, Japan) and a freezing point osmometer (Knauer, Berlin, Germany), respectively.
We previously prepared a lentiviral vector that expressed the TREK-1 channel and using this vector we established a cell line, TR-1, which stably expressed the channel. […] Immediately after whole-cell access, small outward currents were recorded in response to depolarizing step pulses (Fig 1A, 0 min). […]
For orientation: The patch-clamp technique gives a direct electrical read-out from membranes.

Another experiment deals with T2, TASK-1 (Homo sapiens, UniProt O14649).
T2 construct: expressed in transfected cells
T2 sequence (O14649 whole entry, species assumed): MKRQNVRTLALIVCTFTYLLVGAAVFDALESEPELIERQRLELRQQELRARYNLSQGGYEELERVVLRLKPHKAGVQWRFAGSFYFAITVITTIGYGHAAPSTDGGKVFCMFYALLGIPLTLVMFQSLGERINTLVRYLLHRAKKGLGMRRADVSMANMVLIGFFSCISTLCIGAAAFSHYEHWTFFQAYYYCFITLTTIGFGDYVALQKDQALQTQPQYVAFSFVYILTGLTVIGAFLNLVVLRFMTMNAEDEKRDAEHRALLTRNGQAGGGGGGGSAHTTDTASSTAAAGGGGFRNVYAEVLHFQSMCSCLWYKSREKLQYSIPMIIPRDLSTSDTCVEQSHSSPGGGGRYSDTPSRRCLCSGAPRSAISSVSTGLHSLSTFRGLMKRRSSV
The experiment can be described thus: whole-cell patch-clamp of TASK-1 currents in a 293T cell line. The settings on record: n = 10. It is filed as cell-based.
Source text: as §1, with “25°C. Tyrode solution contained (in mM): NaCl 140, KCl 5.4, NaH2PO4 0.33, CaCl2 2, MgCl2 1, HEPES 5, and glucose 5.5 (pH 7.4 adjusted with NaOH).” for “25°C.”, “respectively. […]” for “respectively.”

In a further experiment the target is T3, TASK-3 (Homo sapiens, UniProt Q9NPC2).
T3 construct: expressed in transfected cells; host or cells: 293T (transient, calcium-phosphate transfection)
T3 sequence (Q9NPC2 whole entry, species assumed): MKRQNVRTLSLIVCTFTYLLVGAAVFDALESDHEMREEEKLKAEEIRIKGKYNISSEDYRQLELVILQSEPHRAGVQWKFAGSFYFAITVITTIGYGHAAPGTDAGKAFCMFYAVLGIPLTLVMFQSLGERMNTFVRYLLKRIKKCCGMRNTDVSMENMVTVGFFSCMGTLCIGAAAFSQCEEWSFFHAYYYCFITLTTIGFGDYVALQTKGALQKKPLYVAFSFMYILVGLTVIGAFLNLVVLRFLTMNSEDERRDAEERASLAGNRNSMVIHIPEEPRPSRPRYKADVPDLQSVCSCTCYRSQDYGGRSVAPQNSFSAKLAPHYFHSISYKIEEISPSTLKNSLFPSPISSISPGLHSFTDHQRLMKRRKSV
In words: whole-cell patch-clamp of TASK-3 currents in 293T cells. It counts as cell-based.
Source text: as §1, with “25°C. Tyrode solution contained (in mM): NaCl 140, KCl 5.4, NaH2PO4 0.33, CaCl2 2, MgCl2 1, HEPES 5, and glucose 5.5 (pH 7.4 adjusted with NaOH).” for “25°C.”, “respectively. […]” for “respectively.”

A further experiment deals with KCNQ-1 (Homo sapiens, UniProt P51787). The experiment can be described thus: whole-cell patch-clamp of KCNQ-1 currents in 293T cells. It is filed as cell-based. To be noted: 100 μM (data not shown).
Source text: as §1, with “25°C. Tyrode solution contained (in mM): NaCl 140, KCl 5.4, NaH2PO4 0.33, CaCl2 2, MgCl2 1, HEPES 5, and glucose 5.5 (pH 7.4 adjusted with NaOH).” for “25°C.”, “respectively. […]” for “respectively.”

Experiment [1] concerns mice anxiety-like behavior. The experiment can be described thus: open-field test. It counts as in vivo. To be noted: n = 12. The source says:
(§2) Male ICR mice (n = 317 in total) aged 5 weeks and weighing 32 ± 2 g were purchased from Shimizu Laboratory Supplies (Kyoto, Japan). For the social defeat stress test, we used 28 C57BL/6J mice (5 weeks old, Shimizu Laboratory Supplies) and 30 ICR mice (7–8 weeks old, Charles River Labs Japan, Yokohama, Kanagawa, Japan). Mice were maintained for at least 1 week prior to experiments. Animals were kept in groups in plastic cages. They had free access to food and water, and were kept in a 12-h light/dark cycle (08:00–20:00). Experiments were carried out between 10:00 and 18:00 in a quiet and air-conditioned experimental room, in which mice were habituated for at least 30 min before each experiment. Animal experiments were performed in accordance with the guidelines of the Physiological Society of Japan and were approved by the Committees on Animal Experiments at Kansai Medical University and the Kurashiki University of Science and the Arts. Ostruthin was initially dissolved in DMSO at higher concentration (100 mM) and then diluted in phosphate-buffered saline (PBS). The diluted solution was mixed vigorously for more than 10 min before the experiments, and an equal volume of DMSO was added to PBS as a control. PBS and ostruthin were administered intraperitoneally 30 min before mice behavioral tests (0.01 ml/g body weight). Each animal was used only once, except for the wheel running test, which was carried out immediately after elevated plus maze.
The open-field test was performed in accordance with a previous report with minor modifications. The open-field consisted of a square (90 × 90 cm), in which the floor was divided into 16 equal squares. After a mouse was placed in a corner of the open field facing the wall, the number of the entries into the central squares, and whole line crossings were counted for 5 min. After removal of animal, the apparatus was cleaned and wiped.

For experiment [2], the system named is depression-like behavior of mice. The experiment can be described thus: forced swim test. It counts as in vivo. The settings on record: 0, 2, 5, 20 mg/kg i.p. 30 min before test, dose-dependent, last 4 min of 6 min, n = 8.
Source text: as §2, with “PBS and ostruthin were administered intraperitoneally 30 min before mice behavioral tests (0.01 ml/g body weight). Each animal was used only once, except for the wheel running test, which was carried out immediately after elevated plus maze.” left out
The forced swim test was performed in accordance with a method reported previously. […] Mouse was allowed to swim for 6 min and the activity was measured. […]

For orientation: EC50 means the midpoint of the concentration-response curve. Usually IC50 stands for the midpoint of a concentration-inhibition curve. A lower IC50 goes with inhibition by little substance. `CC(C)=CCC/C(C)=C/Cc1cc2ccc(=O)oc2cc1O` [ostruthin]: the EC50 at TREK-1 channel came out at 5.3 µM. Moreover, the IC50 against TASK-1 is 41 µM; at TASK-3 it was 227 µM. For the same molecule, the “effect on KCNQ-1 channels” value at KCNQ-1 is “no effect”. Besides, the “number of entries to the central area” value in experiment [1] (20 mg/kg i.p. 30 min before test, vs 5 mg/kg) was “significantly decreased”; in experiment [1] (2 and 5 mg/kg i.p. 30 min before test, vs 0 mg/kg, 5 min) it was “significantly increased”. Moreover, the total line crossings result in experiment [1] (20 mg/kg i.p., vs 5 mg/kg) is given as “decrease”; in experiment [1] (2 and 5 mg/kg i.p. 30 min before test, vs 0 mg/kg), “increased”. Besides, the time spent immobile result in experiment [2] is on record as “decreased”.
